# Assay results published in patent US20260224716A1, “PTH ANALOGS FOR THE TREATMENT OF HYPOPARATHYROIDISM” (priority 2020, published 2026).
# Key:
# serum phosphate = test: Serum phosphate in parathyroidectomized rats, ten daily doses (Example 16); type: in vivo, Sprague-Dawley rats; conditions: for starting serum phosphate concentration: PTx rats, before first dose
# Text: (§1) Rats were randomly distributed among 5 groups and injected subcutaneously for ten consecutive days with either vehicle or SEQ ID NO; 87 (10, 25, 40 nmol/kg; n=8). Two separate vehicle treated groups of rats were studied. The first represented control rats surgically managed like the remaining rats, but their parathyroid gland was not removed (sham control). The second vehicle control group represented rats that were surgically managed in the same manner as the SEQ ID NO: 87 treated rats. Following surgery and one week prior to testing all the rats were placed on a defined diet at a specific calcium concentration.
# Determination of phosphate levels was conducted with sampling at near-identical times to the serum calcium, differing only in the last days of the washout period. […] The starting phosphate level was 7.003 mg/dl, as compared to 11.317 mg/dl in the vehicle control group of the PTx rats. […] The difference between the two control groups was maintained through the course of the experiment. […] Efficacy was fully maintained through observation at Day 10, one day after the last administered dose. […] Twenty-five days after study initiation, all PTx-rats aligned as a group with increased phosphate, as compared to sham control rats.
# serum calcium [1] = test: Serum calcium in parathyroidectomized rats, ten daily doses (Example 16); type: in vivo, Sprague-Dawley rats; conditions: for starting serum calcium concentration: before first dose
# Text: as §1
# (§2) A 96-well plate spectrophotometer (SpectraMax M5, Molecular Devices) was employed for detection. […] Absorbance (Ab) was measured at 650 nm wavelength. Manufacturer provided linearity up to 15 mg/dL. The serum calcium was measured immediately prior to injection (time 0 hour), followed by 24, 48, 72, and 96 hours.
# serum calcium [2] = test: Serum calcium in rats, repeat daily dosing 7 days (Example 13); type: in vivo, Sprague-Dawley rats; conditions: daily SC 7 days; SEQ ID NO: 77 20 nmol/kg, SEQ ID NO: 87 20 or 40 nmol/kg; returned to initial values after washout
# Experimental: (§3) Female Sprague-Dawley rats were single or double-housed and randomly assigned to four groups (n=5-6 per group) as described in Table 20, and then weighed.
# (§4) After the treatment ceased, the animals were monitored on days 9 and 11 (washout period).
# (§5) Body weight and food intake were measured on days 0, 1, 3, 5 and 7. Ca was measured on days 0, 1, 2, 3, 4, 7, 9 and 11. Pi was determined on the same samples, except for days 9 and 11.
# [3] = Pharmacokinetics in rats after single subcutaneous dose, LCMS (Example 10); conditions: rats
# Text: Female Sprague-Dawley rats were randomly distributed among four groups with five or six rats per group. […] Dose volume was based on body weight and recorded prior to dosing.
# [4] = Cleavage half-life / conversion of PTH prodrugs in PBS pH 7.4, 37° C. by LC-MS; type: physicochemical; conditions: for Percentage of prodrug: prodrug in PBS, LC-MS peak areas
# How it was run: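 Prodrugs incubated in PBS pH 7.4 at 37 °C, aliquots sampled over time for LC-MS (10–80% acetonitrile/0.1% TFA gradient). Prodrug and drug quantified by relative peak areas; dissociation rate constant from log prodrug concentration versus time.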
# serum calcium [5] = test: Serum calcium in rats after single subcutaneous dose (Example 10); type: in vivo, Sprague-Dawley rats; conditions: 30 or 60 nmol/kg SC single dose; increase within the physiological range
# Experimental: A 96-well plate spectrophotometer (SpectraMax M5, Molecular Devices) was employed for detection. Serum Ca and Pi were measured on days 0, 1, 2, 4, 5 and 7. Absorbance (Ab) was measured at 650 nm for Ca and 340 nm for Pi. Manufacturer linearity is provided up to 15 mg/dl for Ca and 10 mg/dl for Pi.
# [6] = Plasma drug levels in rats, repeat daily dosing 7 days, LCMS (Example 13); type: in vivo, Sprague-Dawley rats
# Experimental: as §3, §4, §5
# serum calcium [7] = test: Serum calcium in parathyroidectomized rats, four daily doses (Example 15); type: in vivo, Sprague-Dawley rats; conditions: for starting serum calcium concentration: before first dose
# Text: as §1, with “subcutaneously for four consecutive days” for “subcutaneously for ten consecutive days”, “either vehicle (sterile 0.9% NaCl solution; n=6), or SEQ” for “either vehicle or SEQ”
# as §2
# serum calcium [8] = test: Serum calcium in rats, repeat daily dosing 28 days (Example 14); type: in vivo, Sprague-Dawley rats
# Experimental: Changes in body weight and food intake were also measured.
# Body weight and food intake were measured on Day 0 (immediately prior to peptide administration), 1, 3, 7, 10, 14, 17, 21, 24, 28, 31, and 35. Serum Ca was measured at the start of the experiment and on Days 7, 14, 21, 28, 29, 30, 31, 32 and 34. Blood samples were collected via tail laceration for determination of total Ca in serum using commercially available colorimetric assays.
# [9] = PTx rats, treatment group 10 nmol/kg
# [10] = PTx rats, treatment group 25 nmol/kg
# [11] = PTx rats, treatment group 40 nmol/kg
structure (smiles),measurement,setting,value
CC[C@H](C)[C@H](NC(=O)[C@H](CCC(=O)O)NC(=O)[C@H](CO)NC(=O)[C@@H](NC(=O)[C@H](CO)NC(=O)CN(C)C(=O)[C@H](N)CCCCNC(=O)CC[C@H](NC(=O)COCCOCCNC(=O)COCCOCCNC(=O)CC[C@H](NC(=O)CCCCCCCCCCCCCCCCC(=O)O)C(=O)O)C(=O)O)C(C)C)C(=O)N[C@@H](CCC(N)=O)C(=O)N[C@@H](CC(C)C)C(=O)N[C@@H](CCSC)C(=O)N[C@@H](Cc1c[nH]cn1)C(=O)N[C@@H](CC(N)=O)C(=O)N[C@@H](CC(C)C)C(=O)NCC(=O)N[C@@H](CCCCN)C(=O)N[C@@H](Cc1c[nH]cn1)C(=O)N[C@@H](CC(C)C)C(=O)N[C@@H](CC(N)=O)C(=O)N[C@@H](CO)C(=O)N[C@@H](CCSC)C(=O)N[C@@H](CCC(=O)O)C(=O)N[C@@H](CCCNC(=N)N)C(=O)N[C@H](C(=O)N[C@@H](CCC(=O)O)C(=O)N[C@@H](Cc1c[nH]c2ccccc12)C(=O)N[C@@H](CC(C)C)C(=O)N[C@@H](CCCNC(=N)N)C(=O)N[C@@H](CCCCN)C(=O)N[C@@H](CCCCN)C(=O)N[C@@H](CC(C)C)C(=O)N[C@@H](CCC(N)=O)C(=O)N[C@@H](CC(=O)O)C(=O)N[C@H](C(=O)N[C@@H](Cc1c[nH]cn1)C(=O)N[C@@H](CCCCNC(=O)CC[C@H](NC(=O)COCCOCCNC(=O)COCCOCCNC(=O)CC[C@H](NC(=O)CCCCCCCCCCCCCCCCC(=O)O)C(=O)O)C(=O)O)C(=O)O)C(C)C)C(C)C [SEQ ID NO: 87],serum phosphate levels versus sham control,"serum phosphate; PTx rats, 10, 25, 40 nmol/kg daily SC, after seven days",comparable to sham control rats
same,starting serum phosphate concentration,serum phosphate; treatment group 10 nmol/kg,11.412 mg/dL
same,starting serum phosphate concentration,serum phosphate; treatment group 25 nmol/kg,10.673 mg/dL
same,starting serum phosphate concentration,serum phosphate; treatment group 40 nmol/kg,8.152 mg/dL
same,"starting serum phosphate, decreased level versus PTx vehicle",serum phosphate; high-dose group 40 nmol/kg,28%
same,"starting serum phosphate, increase versus PTx vehicle",serum phosphate; low-dose group 10 nmol/kg,1.0%
same,"starting serum phosphate, decreased level versus PTx vehicle",serum phosphate; mid-dose group 25 nmol/kg,5.7%
same,serum calcium levels versus sham control,"serum calcium [1]; PTx rats, 10, 25, 40 nmol/kg daily SC, after two days",virtually identical to sham control rats
same,serum calcium levels versus sham control,"serum calcium [1]; PTx rats, mid and high-dose (25, 40 nmol/kg), four and seven days",matched or exceeded what was observed in the sham control rats
same,starting serum calcium concentration,serum calcium [1]; [9],4.5 mg/dL
same,starting serum calcium concentration,serum calcium [1]; [10],5.028 mg/dL
same,starting serum calcium concentration,serum calcium [1]; [11],5.108 mg/dL
same,"starting serum calcium, decreased level versus PTx vehicle",serum calcium [1]; treatment group 10 nmol/kg,3.4%
same,"starting serum calcium, increased level versus PTx vehicle",serum calcium [1]; treatment group 25 nmol/kg,7.9%
same,"starting serum calcium, increased level versus PTx vehicle",serum calcium [1]; treatment group 40 nmol/kg,9.6%
same,Serum Ca levels during the treatment period,serum calcium [2],gradually increased
same,"time of return to baseline value, prodrug",[3]; SEQ ID NO: 87 30 nmol/kg SC,one week
same,tolerability,[3]; doses where prodrug and drug could be measured by LCMS,did not adversely affect the rats
same,half-life,"[4]; PBS buffer, pH 7.4, PBS, LCMS over 192 hours, FIG. 10",112 h
same,Percentage of prodrug,[4]; 0 h,100%
same,Percentage of prodrug,[4]; 48 h,74%
same,Percentage of prodrug,[4]; 72 h,62%
same,Percentage of prodrug,[4]; 120 h,46%
same,Percentage of prodrug,[4]; 192 h,31%
same,time of peak of serum calcium increase,serum calcium [5],3 days
same,daily administrations to reach steady state plasma levels,[6]; daily SC dosing,four
same,difference in total concentration of prodrug to drug,"[6]; seven daily SC injections, FIGS. 19A, 19B",4 fold
same,serum calcium versus sham control,"serum calcium [7]; PTx rats, 25 nmol/kg daily SC, 72 hours",insignificantly different from the sham control rats
same,serum calcium versus sham control,"serum calcium [7]; PTx rats, 40 nmol/kg daily SC, after 48 hours",slightly exceeding that of the sham control rats
same,serum calcium excess over the sham control,"serum calcium [7]; PTx rats, 40 nmol/kg, […] (72 hours after last dose)",more than 0.2 nmol/ml
same,starting serum calcium concentration,serum calcium [7]; [9],1.185 nmol/µL
same,starting serum calcium concentration,serum calcium [7]; [10],1.354 nmol/µL
same,starting serum calcium concentration,serum calcium [7]; [11],1.251 nmol/µL
same,"starting serum calcium, higher level than vehicle treated PTx-rats",serum calcium [7]; treatment group 10 nmol/kg,9.2%
same,"starting serum calcium, higher level than vehicle treated PTx-rats",serum calcium [7]; treatment group 25 nmol/kg,24.8%
same,"starting serum calcium, higher level than vehicle treated PTx-rats",serum calcium [7]; treatment group 40 nmol/kg,15.3%
same,absolute increase in serum Ca over the course of the study,serum calcium [8]; 4 nmol/kg daily SC,1.356 mg/dL
same,percentage increase in serum Ca,serum calcium [8]; 4 nmol/kg daily SC,14.7%
same,absolute increase in serum Ca over the course of the study,serum calcium [8]; 8 nmol/kg daily SC,1.452 mg/dL
same,percentage increase in serum Ca,serum calcium [8]; 8 nmol/kg daily SC,16.7%
same,absolute increase in serum Ca over the course of the study,serum calcium [8]; 12 nmol/kg daily SC,2.072 mg/dL
same,percentage increase in serum Ca,serum calcium [8]; 12 nmol/kg daily SC,23%
same,general health,"serum calcium [8]; 4, 8, 12 nmol/kg daily SC",All animals appeared healthy
